According to PubChem BioAssay (NCI):
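Assay format: 96-well plates, 48-hour exposure. GI50 = concentration required for 50% inhibition of growth. TGI denotes the concentration required for complete inhibition of growth.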

How the values were obtained:
Assay in all cases: DTP human tumour cell line panel, 48 h
DU-145 prostate = tested on: DU-145 prostate
SF-295 CNS = tested on: SF-295 CNS
HCT-15 colon = tested on: HCT-15 colon
U251 CNS = tested on: U251 CNS
UO-31 renal = tested on: UO-31 renal
SK-OV-3 ovarian = tested on: SK-OV-3 ovarian
MDA-MB-231 breast = tested on: MDA-MB-231 breast
HOP-92 NSCLC = tested on: HOP-92 NSCLC
A549 NSCLC = tested on: A549 NSCLC
CCRF-CEM leukemia = tested on: CCRF-CEM leukemia

Structure (SMILES)	TGI (DU-145 prostate)	TGI (SF-295 CNS)	TGI (HCT-15 colon)	TGI (U251 CNS)	TGI (UO-31 renal)	TGI (SK-OV-3 ovarian)	TGI (MDA-MB-231 breast)	TGI (HOP-92 NSCLC)	TGI (A549 NSCLC)	TGI (CCRF-CEM leukemia)	GI50 (DU-145 prostate)	GI50 (HCT-15 colon)	GI50 (U251 CNS)	GI50 (UO-31 renal)	GI50 (SK-OV-3 ovarian)	GI50 (MDA-MB-231 breast)	GI50 (HOP-92 NSCLC)	GI50 (CCRF-CEM leukemia)	GI50 (A549 NSCLC)	GI50 (SF-295 CNS)
C/C(=N\NC(=S)N1CCC(N2CCCCC2)CC1)c1ccccn1	11.2 µM	7.12 µM	6.13 µM	9.86 µM	3.3 µM	11.6 µM	3.57 µM	9.79 µM	10.3 µM	34.3 µM										
CCOC(=O)/C=C/c1c(C)[nH]c(=O)[nH]c1=O		> 250 µM	> 250 µM	> 250 µM	> 250 µM	> 141 µM		> 25 µM	> 250 µM	> 250 µM										
CCOC(=O)NC(Nc1cc(Cl)ccc1OC)(C(F)(F)F)C(F)(F)F	> 100 µM		> 100 µM	> 100 µM	> 100 µM	> 100 µM	> 100 µM	> 100 µM	> 100 µM	> 100 µM										
CN=C(Nc1ccc(OC)c2ccccc12)SC	> 10 µM	> 10 µM	> 10 µM	> 10 µM		> 10 µM	> 10 µM	> 10 µM	> 10 µM	> 10 µM										
O=c1[nH]c(SCc2cccc([N+](=O)[O-])c2)nc2nc[nH]c12	> 100 µM	> 100 µM	> 100 µM	> 100 µM	> 100 µM	> 100 µM	> 100 µM	> 100 µM	> 100 µM	> 100 µM										
O=c1nc2ccc([N+](=O)[O-])cc2[n+]([O-])[nH]1	> 100 µM	> 100 µM	> 100 µM	> 100 µM	> 100 µM	> 100 µM	> 100 µM	> 100 µM	> 100 µM	> 100 µM										
c1ccc2c(c1)c1ccccc1n2Cn1c2ccccc2c2ccccc21	> 100 µM	> 100 µM	> 100 µM	> 100 µM	> 100 µM		> 100 µM	> 100 µM	> 100 µM	> 100 µM										
c1cc2c3c(c1)c1cc4c(cc1c[n+]3CC2)OCO4		13.1 µM	> 225 µM	18.8 µM	> 176 µM	97.2 µM		106 µM	10.2 µM	35.8 µM										
COc1cc(-c2ccc(N=Nc3ccc4c(S(=O)(=O)O)cc(S(=O)(=O)O)c(N)c4c3O)c(OC)c2)ccc1N=Nc1ccc2c(S(=O)(=O)O)cc(S(=O)(=O)O)c(N)c2c1O		> 100 µM	> 100 µM	> 100 µM	> 100 µM	> 100 µM		> 100 µM	> 100 µM	> 100 µM										
COc1cccc2c1C(=O)c1c(O)c3c(c(O)c1C2=O)C[C@@](O)(C(=O)COC(=O)c1ccccc1)C[C@@H]3OC1CC(N)C(O)C(C)O1 (some centres undefined)	1.1 µM		1.76 µM	0.273 µM	2.06 µM	1.44 µM	1.79 µM	0.392 µM		0.334 µM	0.252 µM	0.451 µM	0.113 µM	0.497 µM	0.264 µM	0.376 µM	0.0638 µM	0.0427 µM		
C/C(=N\NC(=O)c1ccc(Cl)cc1)c1nc2ncccc2[nH]1	> 100 µM	> 100 µM	> 100 µM	> 100 µM	> 100 µM	60.5 µM	> 100 µM		> 100 µM	> 100 µM										
O=C(/C=C1\Sc2ccccc2N=C1CC(=O)c1ccccc1)c1ccccc1	89.1 µM	24.7 µM	> 100 µM	18.2 µM	31.5 µM	72 µM	41.8 µM	21.6 µM	25.1 µM	50 µM										
O=c1oc(-c2ccc(O)cc2)cc2cc(O)ccc12	> 100 µM	> 100 µM	> 100 µM		81.3 µM	74.9 µM		96.2 µM	> 100 µM	> 100 µM										
O=C(NN1C(=O)C(Cl)C1c1cccc([N+](=O)[O-])c1)c1ccccc1O (centres undefined)		> 100 µM		> 100 µM	> 100 µM	> 100 µM		> 100 µM	> 100 µM	> 100 µM										
COc1ccc(C2=[S+]C(c3ccccc3)(c3ccccc3)c3ccccc32)cc1	65.7 µM	88.8 µM	54.6 µM	45.3 µM		> 100 µM	61.1 µM	39.4 µM	> 100 µM	88.9 µM										
O=C(N/N=C\c1cccc2ccccc12)Nc1ccccc1	> 100 µM	> 100 µM	> 100 µM	> 100 µM	> 100 µM	> 100 µM		> 100 µM		> 100 µM										
c1ccc2c(c1)NCc1cc3ccccc3nc1O2		> 100 µM	> 100 µM	> 100 µM	> 31.6 µM	> 100 µM		> 100 µM	> 100 µM	> 100 µM										
N#[N+]c1c([O-])c2ccccc2c2ccccc12	> 100 µM	> 100 µM	> 100 µM	> 100 µM	> 100 µM	> 100 µM	> 100 µM	> 100 µM	> 100 µM	> 100 µM										
Cc1cn(-c2cccc(NC(=O)c3ccc(C)c(Nc4nccc(-c5cccnc5)n4)c3)c2)cn1	17.9 µM		8.26 µM	3.39 µM	3.05 µM	3.52 µM	3.46 µM	2.51 µM	3.34 µM	10.9 µM	3.73 µM	2.73 µM	1.69 µM	1.5 µM	2.03 µM	1.63 µM	1.18 µM	1.23 µM	1.55 µM	
Cc1ccc(Cl)cc1N=NC(=O)NNc1cc(Cl)ccc1C	58.3 µM	> 100 µM	95.4 µM	59.6 µM	35.7 µM	49.5 µM	40.3 µM	35.8 µM		54.4 µM										
Cc1cc(N/N=C/c2nc(-c3ccc(Cl)cc3)oc2C)c2cc(Br)ccc2n1	7.67 µM	26.6 µM	4.42 µM	3.29 µM	26.8 µM	18.3 µM	12 µM	16.4 µM	3.71 µM		2.66 µM	1.79 µM	1.73 µM	13.9 µM	5.84 µM	3.43 µM	3.24 µM		1.77 µM	12.4 µM
O=C1C(CO)=C[C@H](O)[C@H]2O[C@@H]12		177 µM	278 µM	381 µM	507 µM	561 µM		525 µM	> 394 µM	418 µM										
O=C1CCC[C@H]2O[C@@H](COC(=O)c3ccccc3)C[C@H]2O1	> 100 µM	> 100 µM	> 100 µM	> 100 µM	> 100 µM	> 100 µM	> 100 µM	> 100 µM	> 100 µM	> 100 µM										
